Experimental data: patent publication EP2762468A1, “2-aminopyridine derivatives as plant growth regulating compounds” (Syngenta Participations AG, priority 2013, dated 2014)

Assays:
[1] = target: T1, Arabidopsis BIN2 kinase (Uniprot Q39011) (Arabidopsis thaliana, UniProt Q39011); experiment: In vitro assay for inhibition of plant GSK3/Shaggy-like kinase activity (ADP-Glo); type: biochemical; conditions: compounds at 5 µM; 5 µM ATP; myelin basic protein substrate; 1 h at 20°C; triplicate; read-out: inhibited the activity of His6-BIN2 relative to the solvent vehicle control
T1 construct: made in house; host or cells: E. coli BL21
T1 sequence (Q39011 1-380): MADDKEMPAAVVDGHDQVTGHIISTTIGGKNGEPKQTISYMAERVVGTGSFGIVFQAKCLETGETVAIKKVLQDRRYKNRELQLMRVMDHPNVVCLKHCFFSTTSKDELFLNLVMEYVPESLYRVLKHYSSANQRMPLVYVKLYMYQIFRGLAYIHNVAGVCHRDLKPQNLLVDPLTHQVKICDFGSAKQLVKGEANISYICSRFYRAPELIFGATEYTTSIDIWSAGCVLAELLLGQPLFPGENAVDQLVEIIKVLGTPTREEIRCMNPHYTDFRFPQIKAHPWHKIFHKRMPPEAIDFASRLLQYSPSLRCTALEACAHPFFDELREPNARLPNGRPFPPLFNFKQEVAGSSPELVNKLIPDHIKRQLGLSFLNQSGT
Description: Arabidopsis BIN2 kinase (Uniprot Q39011) was produced in E.coli BL21 as an N-terminal hexahistidine fusion protein. In vitro kinase assays were performed by incubating 50 ng His6-BIN2 protein with 5 µg myelin basic protein (Sigma-Aldrich) as substrate and 5 µM ATP as co-substrate in reaction buffer consisting of 40 mM Tris-HCl, 20 mM MgCl2 and 0.1mg/mL bovine serum albumin in a final reaction volume of 50 µl. Enzyme activity was assessed in the absence and presence of compounds (described in Tables A and B) at 5 µM by measuring the level of ADP produced after incubation for 1 h at 20°C using an enzyme-coupled bioluminescent assay (ADP-Glo, Promega Corp.). The experiment was performed in triplicate.

[2] = tested on: French beans (Phaseolus vulgaris) of the variety Fulvio; experiment: Bean assay: elongation of the petiole of the second leaf; type: in vivo; conditions: five micro litres of test compound pipetted to the wound at the base of the second internode; measured fourteen days after application
Description: (§1) Two bioassays were developed in order to assay the activity of the compounds of the present invention. In the first assay, the activity of the compound was quantified in beans based on its effect on the elongation of the petiole of the second leaf. In the second assay, the compound's effect on the root growth of wheat was determined.
French beans (Phaseolus vulgaris) of the variety Fulvio were sown in 0.5 litres pots in a sandy loam without additional fertilizer. Plants grew under greenhouse conditions at 22/18°C (day/night) and 80% relative humility; light was supplemented […] 25 kLux. Plants were treated with test compounds eleven days after sowing, when the second internode was 2-5 mm long. Before application, the compounds were each dissolved in dimethyl sulfoxide and diluted in a mixture of lanolin-oil and acetone (1:2 ratio by volume). Five micro litres of the test compound was pipetted to the wound that was created after abscising the bract leaf from the base of the second internode. Fourteen days after application, the length of the petiole of the second leaf (measured from the base of the petiole to the base of the first leaflet) was determined in order to quantify the activity of the compounds.

[3] = tested on: Wheat (Triticum aestivum) seeds of the variety Arina; experiment: Wheat assay: plant (root and shoot) area and curliness of the roots; type: in vivo; conditions: seeds sown in pouches with compound solution; twelve days after sowing/application
Description: as §1
The test compounds were dissolved in small volumes of dimethyl sulfoxide and diluted to the appropriate concentration with water. Wheat (Triticum aestivum) seeds of the variety Arina were sown in pouches (14.7 × 13.2 cm) containing 10 mL of the appropriate compound solution. The pouches were stored at 17 °C for three days to enable the seeds to germinate. Plants were then stored at 5°C. Twelve days after sowing/application, plants were removed from the pouches and scanned. The effect of the compounds was quantified by determining plant (root and shoot) area and curliness of the roots (curliness is an indicator of brassinosteroid-type activity).

| inhibition at 5 µM [1] [%] | Compound | increase of the length of the petiole of the second leaf [2] [%] | curliness of the roots (indicator of brassinosteroid-type activity) [3] | reduction of the plant (root and shoot) area [3] [%] |
| --- | --- | --- | --- | --- |
| ≥ 20 | COC(=O)CCC(=O)Nc1cc(Cl)ccn1 [Compound A1, methyl 4-[(4-chloro-2-pyridyl)amino]-4-oxo-butanoate] | ≥ 10 |  |  |
| ≥ 20 | COC(=O)CCC(=O)Nc1cc(C(F)(F)F)ccn1 [Compound A2] |  |  |  |
| ≥ 20 | COC(=O)CCC(=O)Nc1cc(C#N)ccn1 [Compound A3, methyl 4-[(4-cyano-2-pyridyl)amino]-4-oxo-butanoate] |  |  |  |
| ≥ 20 | COC(=O)CCC(=O)Nc1cc([N+](=O)[O-])ccn1 [Compound A5] |  |  |  |
| ≥ 20 | COC(=O)CCC(=O)Nc1cc(I)ccn1 [Compound A6] |  |  |  |
| ≥ 20 | N#Cc1ccnc(NC(=O)CCC(=O)O)c1 [Compound A7, 4-[(4-cyano-2-pyridyl)amino]-4-oxo-butanoic acid] |  |  |  |
| ≥ 20 | O=C(O)CCC(=O)Nc1cc(C(F)(F)F)ccn1 [Compound A8] |  |  |  |
| ≥ 20 | COC(=O)CCC(=O)Nc1cc(Br)ccn1 [Compound A9] |  |  |  |
| ≥ 20 | O=C1CCC(=O)N1c1cc(C(F)(F)F)ccn1 [Compound B1, 1-[4-(trifluoromethyl)-2-pyridyl]pyrrolidine-2,5-dione] | ≥ 10 | curly root phenotype | ≥ 5 |
